Legend:
boar sperm = experiment: Experiment 2: compatibility with sperm in vitro (motility by computer assisted sperm analyzer); format: cell-based; conditions: exposure 3 hours, 37° C
Experimental: A successful cervical softening agent should be safe for a mammal's tissues and also for sperm used to inseminate the mammal. It was anticipated that the cervical tract and the AI rod will each retain a residue of the solution treatment which may then combine with the semen inside the cervix or uterus. Therefore, experiments were performed using sperm samples from boars to evaluate the toxicity of each proposed treatment and blends.
Extended boar sperm doses (28×10^6/ml; 1 ml) were incubated with each of the miscible solutions at 3 concentrations, 0.1 μL, 0.5 μL, or 1 μL per 1 mL extended sperm, then the sperm with the solution were incubated for 3 hours at 37° C. Motility characteristics were measured via computer assisted sperm analyzer. This experiment was replicated 4 times.

ewe cervices = experiment: Experiment 1: in vitro efficacy of solution, AI rod passage through excised cervical tracts; conditions: ¼ cc rod, tracts treated 1 hour, * = statistically significant improvement over control
Experimental: Ewe and bison cervical tracts were obtained to assess local responses in living tissue thereby modeling in vivo response to a solution. Tracts were treated for 1 hour with the respective solution using an absorbent matrix applicator, then ¼ cc AI rods were passed through the cervix, mimicking trans-cervical artificial insemination. A total of […] tracts were utilized with each of 13 treatments tested in 11 replicates. The estimated number of rings passed was recorded. Post-treatment tracts were dissected, then length and cervical anatomy were recorded, and relationships between cervical structure, ring number and position were and analyzed. Ring passage data was transformed into a percentage of rings passed to normalize the data and to allow comparison across an undefined variety of tissues, breeds, ages, and other etiological differences. A paired T-test indicated trends in increased passage of AI rod (P=0.064) when treating the cervix versus control.

Sperm motility, motile percentage of the total number of spermatozoa (boar sperm; dose 0.1 μL in 1 mL sperm): 90.7% | Sperm motility, motile percentage of the total number of spermatozoa (boar sperm; dose 0.5 μL in 1 mL sperm): 93.3% | Sperm motility, motile percentage of the total number of spermatozoa (boar sperm; dose 1 μL in 1 mL sperm): 91.8%
Compound: CCCC[N+]1(C)[C@@H]2C[C@@H](OC(=O)[C@H](CO)c3ccccc3)C[C@H]1[C@@H]1O[C@@H]12 (stereo partly shown) [Extract F, hyoscine butylbromide]
Avg. % Cervical rings passed (ewe cervices): 50.02* %
